# Source: patent US11878975B2, “Substituted indole compounds useful as TLR inhibitors” (BRISTOL-MYERS SQUIBB COMPANY, priority 2017, dated 2024)
# Assays:
# Format in all cases: cell-based
# human TLR7 = molecular target: T1, human TLR7 (Homo sapiens, UniProt Q9NYK1); assay: TLR7 inhibition reporter assay (HEK-Blue cells, SEAP reporter, gardiquimod stimulation); details: HEK-Blue cells overexpressing human TLR7, SEAP reporter, gardiquimod 7.5 μM
# T1 construct: host or cells: HEK-Blue cells
# T1 sequence (Q9NYK1 27-1049): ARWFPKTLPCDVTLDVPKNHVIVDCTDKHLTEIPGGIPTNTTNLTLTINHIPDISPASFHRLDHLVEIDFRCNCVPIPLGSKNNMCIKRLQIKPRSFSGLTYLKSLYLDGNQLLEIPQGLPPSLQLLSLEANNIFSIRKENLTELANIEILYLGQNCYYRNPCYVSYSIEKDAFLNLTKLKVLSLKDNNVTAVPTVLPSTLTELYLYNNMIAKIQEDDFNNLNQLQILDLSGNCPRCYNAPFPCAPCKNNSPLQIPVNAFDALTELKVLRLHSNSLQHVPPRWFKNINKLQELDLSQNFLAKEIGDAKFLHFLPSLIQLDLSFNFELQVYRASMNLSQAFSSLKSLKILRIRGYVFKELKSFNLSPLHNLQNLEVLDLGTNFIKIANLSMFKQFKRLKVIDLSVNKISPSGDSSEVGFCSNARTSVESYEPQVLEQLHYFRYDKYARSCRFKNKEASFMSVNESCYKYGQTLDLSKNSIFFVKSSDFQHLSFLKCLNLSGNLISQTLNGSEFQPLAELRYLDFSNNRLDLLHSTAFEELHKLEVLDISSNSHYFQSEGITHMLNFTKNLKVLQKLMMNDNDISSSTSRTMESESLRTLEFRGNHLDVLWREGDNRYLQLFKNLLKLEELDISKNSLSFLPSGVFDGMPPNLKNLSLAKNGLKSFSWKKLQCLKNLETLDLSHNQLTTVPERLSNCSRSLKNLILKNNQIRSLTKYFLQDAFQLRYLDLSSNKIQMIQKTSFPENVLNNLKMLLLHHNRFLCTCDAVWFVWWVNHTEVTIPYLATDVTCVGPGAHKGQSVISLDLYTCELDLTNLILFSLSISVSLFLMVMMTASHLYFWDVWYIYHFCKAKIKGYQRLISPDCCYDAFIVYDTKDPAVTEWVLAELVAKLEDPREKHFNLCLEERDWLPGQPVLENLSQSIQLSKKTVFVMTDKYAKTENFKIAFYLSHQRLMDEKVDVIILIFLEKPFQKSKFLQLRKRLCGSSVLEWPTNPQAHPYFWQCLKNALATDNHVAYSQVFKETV
# Summary of the method: (§1)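 Ligand levels: TLR7 gardiquimod 7.5 μM, TLR8 R848 15.9 μM, TLR9 ODN2006 5 nM, added after 30 min room-temperature compound pre-incubation at 0.05 nM-50 μM. Reporter SEAP read with HEK-Blue Detection reagent after 22 h, 37° C. Inhibition expressed as % reduction relative to agonist-plus-DMSO and known-inhibitor controls.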
# human TLR8 = molecular target: T2, human TLR8 (Homo sapiens, UniProt Q9NR97); assay: TLR8 inhibition reporter assay (HEK-Blue cells, SEAP reporter, R848 stimulation); details: HEK-Blue cells overexpressing human TLR8, SEAP reporter, R848 15.9 μM
# T2 construct: host or cells: HEK-Blue cells
# T2 sequence (Q9NR97 27-1041): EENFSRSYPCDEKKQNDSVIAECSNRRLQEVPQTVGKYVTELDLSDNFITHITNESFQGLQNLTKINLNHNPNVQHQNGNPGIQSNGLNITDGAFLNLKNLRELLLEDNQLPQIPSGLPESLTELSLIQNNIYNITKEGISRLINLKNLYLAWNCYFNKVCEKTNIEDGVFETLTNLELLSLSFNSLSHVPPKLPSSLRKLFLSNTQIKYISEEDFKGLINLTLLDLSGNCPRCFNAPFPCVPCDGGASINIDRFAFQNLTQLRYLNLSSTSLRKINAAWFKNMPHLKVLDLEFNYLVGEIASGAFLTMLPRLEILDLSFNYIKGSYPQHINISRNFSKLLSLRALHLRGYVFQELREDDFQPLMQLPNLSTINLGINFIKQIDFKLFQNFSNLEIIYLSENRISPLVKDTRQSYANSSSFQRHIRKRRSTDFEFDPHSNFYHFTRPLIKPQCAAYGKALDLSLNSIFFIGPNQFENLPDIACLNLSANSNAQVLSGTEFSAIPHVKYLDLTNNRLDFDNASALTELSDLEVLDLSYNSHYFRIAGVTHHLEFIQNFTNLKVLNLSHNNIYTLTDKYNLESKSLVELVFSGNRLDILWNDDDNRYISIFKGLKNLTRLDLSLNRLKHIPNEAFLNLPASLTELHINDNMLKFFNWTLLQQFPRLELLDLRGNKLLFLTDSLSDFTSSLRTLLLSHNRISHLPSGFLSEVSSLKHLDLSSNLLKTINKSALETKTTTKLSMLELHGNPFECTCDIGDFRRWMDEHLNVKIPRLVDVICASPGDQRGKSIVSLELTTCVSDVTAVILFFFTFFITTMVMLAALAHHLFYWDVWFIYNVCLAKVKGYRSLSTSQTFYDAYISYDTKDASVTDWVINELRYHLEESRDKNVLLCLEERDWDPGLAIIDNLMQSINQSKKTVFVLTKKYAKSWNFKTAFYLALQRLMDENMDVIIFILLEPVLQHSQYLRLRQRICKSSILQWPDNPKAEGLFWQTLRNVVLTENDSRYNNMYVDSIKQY
# Summary of the method: as §1
# human TLR9 = molecular target: T3, human TLR9 (Homo sapiens, UniProt Q9NR96); assay: TLR9 inhibition reporter assay (HEK-Blue cells, SEAP reporter, ODN2006 stimulation); details: HEK-Blue cells overexpressing human TLR9, SEAP reporter, ODN2006 5 nM
# T3 construct: host or cells: HEK-Blue cells
# T3 sequence (Q9NR96 26-1032): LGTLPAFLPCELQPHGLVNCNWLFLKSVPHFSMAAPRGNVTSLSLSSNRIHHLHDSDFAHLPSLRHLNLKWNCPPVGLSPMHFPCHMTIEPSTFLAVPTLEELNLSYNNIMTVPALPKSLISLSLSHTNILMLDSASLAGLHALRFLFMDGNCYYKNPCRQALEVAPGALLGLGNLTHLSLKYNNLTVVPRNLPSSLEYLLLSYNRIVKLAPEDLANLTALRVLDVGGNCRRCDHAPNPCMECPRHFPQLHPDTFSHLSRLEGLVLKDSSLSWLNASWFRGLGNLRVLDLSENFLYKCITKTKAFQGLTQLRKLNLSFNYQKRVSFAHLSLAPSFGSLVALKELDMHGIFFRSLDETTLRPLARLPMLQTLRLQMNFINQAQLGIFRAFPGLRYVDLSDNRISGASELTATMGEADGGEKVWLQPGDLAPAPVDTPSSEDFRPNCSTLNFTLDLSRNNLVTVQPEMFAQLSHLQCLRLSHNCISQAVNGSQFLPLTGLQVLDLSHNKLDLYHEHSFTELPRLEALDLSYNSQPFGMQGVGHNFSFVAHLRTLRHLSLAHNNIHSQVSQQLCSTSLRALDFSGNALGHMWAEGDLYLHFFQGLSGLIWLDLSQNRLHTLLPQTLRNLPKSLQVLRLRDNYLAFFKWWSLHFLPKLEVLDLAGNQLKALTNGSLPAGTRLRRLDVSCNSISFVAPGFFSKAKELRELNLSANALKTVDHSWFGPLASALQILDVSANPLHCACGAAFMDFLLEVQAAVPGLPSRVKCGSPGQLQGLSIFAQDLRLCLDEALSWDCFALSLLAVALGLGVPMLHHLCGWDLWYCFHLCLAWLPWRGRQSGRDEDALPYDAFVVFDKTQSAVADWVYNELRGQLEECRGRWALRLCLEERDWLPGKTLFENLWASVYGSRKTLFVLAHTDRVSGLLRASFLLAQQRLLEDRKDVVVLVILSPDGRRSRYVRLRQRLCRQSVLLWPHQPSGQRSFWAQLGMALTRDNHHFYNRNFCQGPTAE
# Summary of the method: as §1
Compound,IC50 (human TLR7),IC50 (human TLR8),IC50 (human TLR9)
Cc1c(-c2[nH]c3ccc(C4CCC(N)CC4)cc3c2C(C)C)cn2cnnc2c1C (stereo not drawn) [Example 515],6 nM,59 nM,1230 nM
Cc1c(-c2[nH]c3ccc(C4CCC(NCC(=O)N(C)C)CC4)cc3c2C(C)C)cn2cnnc2c1C (stereo not drawn) [Example 517],5 nM,42 nM,2460 nM
Cc1c(-c2[nH]c3ccc(C4CC5CNCC5C4)cc3c2C(C)C)cn2cnnc2c1C (stereo not drawn) [Example 519],6 nM,127 nM,2510 nM
Cc1c(-c2[nH]c3ccc(C4CC5CN(CC(=O)N(C)C)CC5C4)cc3c2C(C)C)cn2cnnc2c1C (stereo not drawn) [Example 520],29 nM,66 nM,17700 nM
Cc1c(-c2[nH]c3ccc(C4CC5CN(C6COC6)CC5C4)cc3c2C(C)C)cn2cnnc2c1C (stereo not drawn) [Example 522],9 nM,85 nM,12700 nM
Cc1c(-c2[nH]c3ccc(C4CCC(NC5COC5)CC4)cc3c2C(C)C)cn2cnnc2c1C (stereo not drawn) [Example 524],12 nM,21 nM,11100 nM
CNC1CCC(c2ccc3[nH]c(-c4cn5cnnc5c(C)c4C)c(C(C)C)c3c2)CC1 (stereo not drawn) [Example 525],7 nM,50 nM,4410 nM
Cc1c(-c2[nH]c3ccc(C4CCC(N(C)C5COC5)CC4)cc3c2C(C)C)cn2cnnc2c1C (stereo not drawn) [Example 526],6 nM,34 nM,6970 nM
Cc1c(-c2[nH]c3ccc(C4CCC(N(C)C)CC4)cc3c2C(C)C)cn2cnnc2c1C (stereo not drawn) [Example 529],12 nM,39 nM,9130 nM
Cc1c(-c2[nH]c3ccc(C4CNC4)cc3c2C(C)C)cn2cnnc2c1C [Example 531],57 nM,137 nM,10200 nM
Cc1c(-c2[nH]c3ccc(C4CN(CCS(C)(=O)=O)C4)cc3c2C(C)C)cn2cnnc2c1C [Example 532],13 nM,20 nM,16900 nM
Cc1c(-c2[nH]c3ccc(C4CN(C)C4)cc3c2C(C)C)cn2cnnc2c1C [Example 533],8 nM,42 nM,2180 nM

# Stronger by IC50 (human TLR7), values ahead:
IC50 (human TLR7),IC50 (human TLR8),IC50 (human TLR9),Compound
3 nM,15 nM,16300 nM,Cc1c(-c2[nH]c3ccc(C4CC5CN(CC#N)CC5C4)cc3c2C(C)C)cn2ncnc2c1C (stereo not drawn) [Example 512]
0.96 nM,20 nM,12500 nM,COc1cc(-c2[nH]c3ccc(C4CC5CN(C6COC6)CC5C4)cc3c2C(C)C)cn2ncnc12 (stereo not drawn) [Example 513]
1 nM,18 nM,15700 nM,Cc1c(-c2[nH]c3ccc(C4CC5CN(CCS(C)(=O)=O)CC5C4)cc3c2C(C)C)cn2ncnc2c1C (stereo not drawn) [Example 514]
3 nM,13 nM,707 nM,Cc1c(-c2[nH]c3ccc(C4CCC(N)CC4)cc3c2C(C)C)cn2cnnc2c1C (stereo not drawn) [Example 516]
2 nM,16 nM,1310 nM,Cc1c(-c2[nH]c3ccc(C4CCC(NCC(=O)N(C)C)CC4)cc3c2C(C)C)cn2cnnc2c1C (stereo not drawn) [Example 518]
4 nM,37 nM,7020 nM,Cc1c(-c2[nH]c3ccc(C4CC5CN(C(=O)CN(C)C)CC5C4)cc3c2C(C)C)cn2cnnc2c1C (stereo not drawn) [Example 521]
0.48 nM,5.1 nM,2720 nM,Cc1c(-c2[nH]c3ccc(C4CCC(NC5COC5)CC4)cc3c2C(C)C)cn2cnnc2c1C (stereo not drawn) [Example 523]
0.52 nM,4.5 nM,765 nM,Cc1c(-c2[nH]c3ccc(C4CCC(N(C)C)CC4)cc3c2C(C)C)cn2cnnc2c1C (stereo not drawn) [Example 527]
2 nM,16 nM,5600 nM,Cc1c(-c2[nH]c3ccc(C4CCC(N(C)C5COC5)CC4)cc3c2C(C)C)cn2cnnc2c1C (stereo not drawn) [Example 528]
2 nM,12 nM,696 nM,CNC1CCC(c2ccc3[nH]c(-c4cn5cnnc5c(C)c4C)c(C(C)C)c3c2)CC1 (stereo not drawn) [Example 530]
